This is an account of results in ChEMBL document CHEMBL2380240, “Discovery, synthesis, selectivity modulation and DMPK characterization of 5-azaspiro[2.4]heptanes as potent orexin receptor antagonists” (Bioorg Med Chem Lett, 2013).

In data set [1] the target is T1, CYP2D6 (Homo sapiens, UniProt P10635). Description: Inhibition of human recombinant CYP2D6 at 1 uM by fluorimetric assay. The format is ADME.
Data set [2] deals with T2, CYP3A4 (Homo sapiens, UniProt P08684). Description: Inhibition of human recombinant CYP3A4 using DBF as substrate at 3 uM by fluorimetric assay. It counts as ADME. As to conditions: recombinant CYP3A4, probe DBF; call rule not given here.
Data set [3] in a line: Oral bioavailability in rat at 1 mg/kg. Conditions: in vivo. It counts as ADME, organism-based.
Data set [4] is described as follows: Volume of distribution at steady state in rat. As to conditions: in vivo, read-out: Vdss. The format is ADME, organism-based.
Data set [5] has as its target T3, Cytochrome P450 3A4 (Homo sapiens, UniProt P08684). Description: Inhibition of human recombinant CYP3A4 using BFC as substrate by fluorimetric assay. The format is ADME.
Data set [6] has as its target T2, CYP3A4. The data set is described as follows: Inhibition of human recombinant CYP3A4 using BFC as substrate at 1 uM by fluorimetric assay. It counts as ADME. Conditions: recombinant CYP3A4, probe BFC.
Data set [7] concerns the target T4, CYP1A2 (Homo sapiens, UniProt P05177).
T4 sequence (P05177 whole entry): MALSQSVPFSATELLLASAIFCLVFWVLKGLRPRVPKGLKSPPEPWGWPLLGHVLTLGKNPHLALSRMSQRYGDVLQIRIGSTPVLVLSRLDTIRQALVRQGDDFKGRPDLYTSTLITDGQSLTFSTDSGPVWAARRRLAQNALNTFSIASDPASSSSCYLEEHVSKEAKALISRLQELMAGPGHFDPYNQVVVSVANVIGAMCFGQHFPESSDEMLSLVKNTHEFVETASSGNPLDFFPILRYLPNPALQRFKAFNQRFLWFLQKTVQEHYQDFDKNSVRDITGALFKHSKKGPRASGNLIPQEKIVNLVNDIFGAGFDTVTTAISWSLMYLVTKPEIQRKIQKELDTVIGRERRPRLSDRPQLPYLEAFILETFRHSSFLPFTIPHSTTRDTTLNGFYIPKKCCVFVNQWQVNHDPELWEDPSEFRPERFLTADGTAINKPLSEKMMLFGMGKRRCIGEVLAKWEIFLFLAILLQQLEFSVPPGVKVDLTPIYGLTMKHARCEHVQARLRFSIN
Description: Inhibition of human recombinant CYP1A2 at 3 uM by fluorimetric assay. It counts as ADME.

For data set [8], the target named is T5, CYP2C19 (Homo sapiens, UniProt P33261). The data set is described as follows: Inhibition of human recombinant CYP2C19 at 1 uM by fluorimetric assay. It counts as ADME.
Data set [9] concerns the target T3, Cytochrome P450 3A4. Description: Time dependent inhibition of human recombinant CYP3A4 using BFC as substrate incubated for 30 mins prior to substrate addition. Conditions: recombinant enzyme, 0.5 h. The format is ADME.
The target of data set [10] is T6, CYP2C9 (Homo sapiens, UniProt P11712). The data set is described as follows: Inhibition of human recombinant CYP2C9 at 3 uM by fluorimetric assay. The format is ADME.
A short description of data set [11]: Plasma clearance in rat at 1 mg/kg, iv. It counts as ADME, organism-based. On the set-up: dose 1 mg/kg, route intravenous.
Data set [12] has as its target T2, CYP3A4. The data set is described as follows: Inhibition of human recombinant CYP3A4 using BFC as substrate at 3 uM by fluorimetric assay. It counts as ADME. Conditions: recombinant CYP3A4, probe BFC.
The target in data set [13] is T6, CYP2C9. The data set is described as follows: Inhibition of human recombinant CYP2C9 at 1 uM by fluorimetric assay. It counts as ADME.
In data set [14] the target is T7, Orexin/Hypocretin receptor type 1 (Homo sapiens) (UniProt O43613).
T7 sequence (whole entry): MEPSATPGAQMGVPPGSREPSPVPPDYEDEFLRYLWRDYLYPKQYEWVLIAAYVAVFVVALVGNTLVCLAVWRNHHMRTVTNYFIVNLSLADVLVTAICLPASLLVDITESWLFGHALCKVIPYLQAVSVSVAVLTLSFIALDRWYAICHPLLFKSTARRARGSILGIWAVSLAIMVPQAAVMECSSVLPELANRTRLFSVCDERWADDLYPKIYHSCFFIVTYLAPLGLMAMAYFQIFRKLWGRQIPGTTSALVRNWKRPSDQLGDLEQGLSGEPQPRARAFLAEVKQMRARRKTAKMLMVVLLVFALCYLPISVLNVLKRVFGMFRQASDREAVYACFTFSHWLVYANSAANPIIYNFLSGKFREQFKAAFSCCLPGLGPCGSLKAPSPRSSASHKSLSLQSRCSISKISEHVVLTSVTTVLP
Description: Antagonist activity at human recombinant OX1 receptor expressed in CHO cells assessed as OXA-stimulated intracellular calcium mobilization by FLIPR assay. The format is functional, cell-based. On the technique in general: Calcium assays in cells follow changes in intracellular calcium, usually with a dye or a luminescent sensor.

The target of data set [15] is T4, CYP1A2. The data set is described as follows: Inhibition of human recombinant CYP1A2 at 1 uM by fluorimetric assay. It counts as ADME.
Data set [16] addresses T8, Orexin receptor type 2 (Homo sapiens) (UniProt O43614).
T8 sequence (whole entry): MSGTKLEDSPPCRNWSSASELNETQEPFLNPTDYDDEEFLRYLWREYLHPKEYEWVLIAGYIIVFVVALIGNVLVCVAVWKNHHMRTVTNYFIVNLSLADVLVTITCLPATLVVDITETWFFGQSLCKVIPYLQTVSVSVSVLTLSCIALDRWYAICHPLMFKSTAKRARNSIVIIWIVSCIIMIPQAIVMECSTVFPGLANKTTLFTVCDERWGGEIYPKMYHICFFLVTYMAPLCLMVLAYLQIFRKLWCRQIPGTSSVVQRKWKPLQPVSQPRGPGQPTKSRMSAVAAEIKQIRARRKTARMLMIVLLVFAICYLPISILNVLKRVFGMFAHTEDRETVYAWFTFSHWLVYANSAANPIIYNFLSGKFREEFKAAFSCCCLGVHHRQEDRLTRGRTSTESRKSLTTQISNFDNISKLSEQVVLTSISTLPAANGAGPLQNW
The data set is described as follows: Antagonist activity at human recombinant OX2 receptor expressed in HEK293 cells assessed as OXB-stimulated intracellular calcium mobilization by FLIPR assay. The format is functional, cell-based.

Data set [17] can be described thus: Ratio of drug uptake from rat brain to plasma at 1 mg/kg, iv after 1 hr. The format is ADME, organism-based. On the set-up: dose 1 mg/kg, route intravenous. Conditions: read-out: BPR.
Data set [18] has as its target T1, CYP2D6. Description: Inhibition of human recombinant CYP2D6 at 3 uM by fluorimetric assay. It counts as ADME.
Data set [19] concerns the target T5, CYP2C19. The data set is described as follows: Inhibition of human recombinant CYP2C19 at 3 uM by fluorimetric assay. It counts as ADME.
Data set [20] addresses T2, CYP3A4. Description: Inhibition of human recombinant CYP3A4 using DBF as substrate at 1 uM by fluorimetric assay. It counts as ADME. Conditions: recombinant CYP3A4, probe DBF.
The species entered for data set [21] is Homo sapiens. Description: Selectivity ratio for human recombinant OX1 to human recombinant OX2.

T2 sequence (P08684 whole entry): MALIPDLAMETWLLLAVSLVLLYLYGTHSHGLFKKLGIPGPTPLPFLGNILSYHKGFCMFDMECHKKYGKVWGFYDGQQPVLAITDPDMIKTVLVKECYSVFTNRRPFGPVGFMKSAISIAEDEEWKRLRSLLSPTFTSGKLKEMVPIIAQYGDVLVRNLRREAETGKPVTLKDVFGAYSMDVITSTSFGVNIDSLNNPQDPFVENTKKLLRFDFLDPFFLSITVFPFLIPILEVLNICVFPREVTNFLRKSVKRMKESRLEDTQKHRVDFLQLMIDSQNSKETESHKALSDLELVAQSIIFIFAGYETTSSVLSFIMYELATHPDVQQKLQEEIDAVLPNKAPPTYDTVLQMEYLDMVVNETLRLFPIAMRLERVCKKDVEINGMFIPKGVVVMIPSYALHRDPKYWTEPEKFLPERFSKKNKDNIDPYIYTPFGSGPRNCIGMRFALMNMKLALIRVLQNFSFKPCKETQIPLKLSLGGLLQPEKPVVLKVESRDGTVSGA
T3 sequence (P08684 whole entry): as above
T6 sequence (P11712 whole entry): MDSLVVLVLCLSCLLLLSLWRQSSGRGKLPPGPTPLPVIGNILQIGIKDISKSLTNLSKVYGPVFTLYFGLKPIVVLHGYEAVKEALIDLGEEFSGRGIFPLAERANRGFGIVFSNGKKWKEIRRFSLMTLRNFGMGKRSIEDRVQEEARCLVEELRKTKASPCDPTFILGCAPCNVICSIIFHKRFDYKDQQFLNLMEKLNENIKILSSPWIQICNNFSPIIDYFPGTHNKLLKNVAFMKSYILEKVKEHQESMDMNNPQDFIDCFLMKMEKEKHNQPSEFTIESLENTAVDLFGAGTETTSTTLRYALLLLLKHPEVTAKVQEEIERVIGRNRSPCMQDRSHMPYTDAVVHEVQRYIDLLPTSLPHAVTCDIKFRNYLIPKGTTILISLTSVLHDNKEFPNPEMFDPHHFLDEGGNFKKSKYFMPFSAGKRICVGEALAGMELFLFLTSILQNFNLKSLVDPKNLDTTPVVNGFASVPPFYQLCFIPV
T5 sequence (P33261 whole entry): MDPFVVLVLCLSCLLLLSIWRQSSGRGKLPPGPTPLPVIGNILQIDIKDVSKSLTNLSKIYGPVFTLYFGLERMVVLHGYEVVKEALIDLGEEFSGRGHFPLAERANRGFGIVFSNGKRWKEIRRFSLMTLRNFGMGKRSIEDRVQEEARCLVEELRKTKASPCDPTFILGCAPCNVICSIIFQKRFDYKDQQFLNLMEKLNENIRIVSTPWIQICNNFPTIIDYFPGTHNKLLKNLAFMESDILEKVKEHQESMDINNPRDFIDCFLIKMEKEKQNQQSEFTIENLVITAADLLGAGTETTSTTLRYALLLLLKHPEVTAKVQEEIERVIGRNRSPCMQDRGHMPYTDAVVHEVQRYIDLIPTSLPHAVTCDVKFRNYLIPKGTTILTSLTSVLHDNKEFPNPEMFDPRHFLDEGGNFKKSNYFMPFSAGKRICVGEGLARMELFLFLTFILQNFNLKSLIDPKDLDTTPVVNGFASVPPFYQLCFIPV
T1 sequence (P10635 whole entry): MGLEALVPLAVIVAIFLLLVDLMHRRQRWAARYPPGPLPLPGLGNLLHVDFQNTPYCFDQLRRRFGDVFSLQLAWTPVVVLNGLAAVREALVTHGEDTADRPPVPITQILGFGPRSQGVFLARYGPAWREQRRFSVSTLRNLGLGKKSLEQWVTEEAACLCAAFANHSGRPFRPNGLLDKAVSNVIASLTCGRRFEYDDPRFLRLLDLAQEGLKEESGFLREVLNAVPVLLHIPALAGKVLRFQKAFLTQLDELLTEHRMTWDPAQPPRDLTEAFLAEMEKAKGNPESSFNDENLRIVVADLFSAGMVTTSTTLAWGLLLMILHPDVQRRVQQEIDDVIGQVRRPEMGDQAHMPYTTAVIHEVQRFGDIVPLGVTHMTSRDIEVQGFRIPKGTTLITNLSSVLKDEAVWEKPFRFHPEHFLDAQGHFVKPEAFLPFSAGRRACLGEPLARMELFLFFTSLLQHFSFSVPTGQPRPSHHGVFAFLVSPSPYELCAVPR

Take `Cc1nc(C(=O)N2CC3(CC3)C[C@H]2CNc2ccc(C(F)(F)F)cn2)c(-c2ccccc2)s1`: the inhibition at 1 µM in data set [1], in data set [6], in data set [8], in data set [13], in data set [15] and in data set [20] was under 20% throughout. Moreover, the inhibition at 3 µM in data set [2], in data set [7], in data set [10], in [12], in [18] and in data set [19] was under 20% in each case. Besides, the bioavailability – broadly, the share of a dose that reaches the circulation, judged against a reference dose that is usually intravenous – in data set [3] came out at 20%. In data set [4], the Vd was 3 L/kg. Further, the IC50 – broadly, the concentration at which inhibition is half-maximal – in [5] was over 100 µM. The “inhibition (INH)” value in [9] is “Active”. Moreover, the clearance – broadly, the rate of elimination divided by the concentration – in [11] was 55.2 mL/min/kg. Also, the pKb (usually the Kb on a negative log10 scale, so that one unit is a factor of ten) was determined as 8.4 in [14] and 7.7 in data set [16]. Further, the Kp at 1 h in data set [17] was found to be 0.6.
Turning to `Cc1ccc(-c2ncccn2)c(C(=O)N2CC3(CC3)C[C@H]2CNc2ccc(Cl)cn2)c1`, the inhibition at 1 µM in data set [1], in data set [6], in [8], in data set [13], in data set [15] and in data set [20] was under 53% in each case. The compound also registered a bioavailability in data set [3] of 40%. Further, the Vd in data set [4] came to 6.21 L/kg. In [11], this compound had a clearance of 11 mL/min/kg. The negative logarithm of the Kb (pKb) was 8.2 in data set [14] and under 5 in data set [16]. Besides, the Kp at 1 h in data set [17] stood at 0.03.
`Cc1ccc(-c2ccccc2)c(C(=O)N2CC3(CC3)C[C@H]2CNc2ccc(C(F)(F)F)cn2)n1`: the inhibition at 3 µM in [2], in data set [7], in [10], in data set [12], in data set [18] and in data set [19] was under 20% throughout. This compound also registered a bioavailability in data set [3] of 11%. Moreover, the Vd in data set [4] was determined as 4.4 L/kg. In addition, in data set [5], the 50% inhibitory concentration (IC50) was found to be 64 µM. Further, in data set [9], the “inhibition (INH)” value is on record as “Not Active”. The clearance in [11] is 61.3 mL/min/kg. Besides, the negative-log Kb (pKb) in data set [14] worked out at 8.6; in data set [16], 8. Also, the Kp at 1 h in [17] worked out at 0.4.
Regarding `Cc1ccc(-c2ncccn2)c(C(=O)N2CC3(CC3)C[C@H]2CNc2ccc(C(F)(F)F)cn2)n1`, the inhibition at 3 µM in data set [2], in data set [7], in [10], in data set [12], in [18] and in data set [19] was under 28% throughout. The compound further returned a bioavailability in data set [3] of 33%. Moreover, the Vd in data set [4] came out at 2 L/kg. Further, the 50% inhibitory concentration (IC50) in [5] was over 100 µM. The “inhibition (INH)” value in data set [9] is listed as “Active”. Also, the clearance in data set [11] was 47.5 mL/min/kg. Besides, the negative logarithm of the Kb (pKb) in [14] is 8.4; in data set [16] it was 7.5. Also, in data set [17], the Kp at 1 h was 0.5.
As to `Cc1ccc(-c2ncccn2)c(C(=O)N2CC3(CC3)C[C@H]2CNc2cc(C(F)(F)F)ccn2)n1`, the inhibition at 1 µM in [1], in [6], in data set [8], in [13], in data set [15] and in data set [20] was under 39% each time. The negative logarithm of the Kb (pKb) in data set [14] stood at 6; in data set [16], 8.1. Also, the Selectivity ratio in data set [21] was over 100.
As to `Cc1cc(C)nc(NC[C@@H]2CC3(CC3)CN2C(=O)c2nc(C)sc2-c2ccccc2)n1`, the inhibition at 1 µM in data set [1], in data set [6], in data set [8], in data set [13], in [15] and in [20] was under 16% each time. Besides, the Vd in [4] was found to be 0.7 L/kg. For the same compound, the IC50 in [5] was 7.9 µM. For the same compound, the “inhibition (INH)” value in data set [9] is given as “Active”. The compound further gave a clearance in data set [11] of 41.4 mL/min/kg. Besides, the pKb came out at 7.5 in data set [14] and 8.6 in [16]. For the same compound, in [17], the Kp at 1 h came out at 0.1.
As for `Cc1ccc(-n2nccn2)c(C(=O)N2CC3(CC3)C[C@H]2CNc2cccc(C)n2)c1`, the inhibition at 1 µM in data set [1], in data set [6], in [8], in [13], in data set [15] and in data set [20] was under 34% each time. Also, in data set [4], the Vd was found to be 0.48 L/kg. Further, in [11], the clearance was 33.1 mL/min/kg. The pKb in data set [14] was 7.1; in data set [16] it was under 5. For the same compound, the Kp at 1 h in [17] was determined as 0.2.
